Common to all, as to format: cell-based
For assay [1], the system named is HCV 1b RLuc cells (dicistronic genotype 1b Con1 replicon, RLuc reporter). Briefly: microbe, parasite or virus in culture. To be noted: Hepatitis C virus, read-out: 1b (nM). The procedure, abridged:
(§1)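 Replicon cells stably carrying the listed RLuc-encoding dicistronic replicons were seeded and treated with DMSO serial dilutions of compound (10 mM stocks) diluted into culture medium. After 72 h, cells were lysed and Renilla luciferase activity measured. EC50 was derived by non-linear regression.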

Assay [2] has as its system HCV 2a JFH-1 Rluc cells (dicistronic genotype 2a JFH-1 replicon, RLuc reporter). Briefly: microbe, parasite or virus in culture. To be noted: Hepatitis C virus, genotype 2a JFH-1 RLuc replicon; read-out: 2a JFH. The procedure, abridged:
as §1

In assay [3] the test system is HCV 1a RLuc cells (dicistronic genotype 1a H77 replicon, RLuc reporter). In words: microbe, parasite or virus in culture. To be noted: Hepatitis C virus, genotype 1a H77 RLuc replicon; read-out: 1a. The procedure, abridged:
as §1
On the technique in general: In antiviral work, replicon cells carry a viral genome segment that copies itself.

Assay [4] deals with HCV 3a RLuc cells (NS5A chimeric genotype 1b Con1 replicon with consensus genotype 3a NS5A gene). In words: microbe, parasite or virus in culture. The conditions noted are these: Hepatitis C virus, read-out: 3a, genotype 3a NS5A chimeric replicon. The procedure, abridged: as §1
Assay [5] has as its system HCV 2b Rluc cells (NS5A chimeric genotype 2a JFH-1 replicon with genotype 2b MD2b-1 NS5A gene, M31 present). In words: microbe, parasite or virus in culture. The conditions noted are these: Hepatitis C virus, read-out: 2b. The procedure, abridged:
as §1

The subject of assay [6] is HCV 2a Rluc cells (NS5A chimeric genotype 2a JFH-1 replicon with genotype 2a J6 strain NS5A gene, M31 present). In words: HCV replicon reporter assay, genotype 2a J6 (M31 present). To be noted: Hepatitis C virus, read-out: 2a J6. The procedure, abridged:
as §1

For assay [7], the system named is Q30R in genotype 1a NS5A, 1a Rluc replicon transfected into Huh-7 cured-51 cells. In words: HCV replicon assay, resistance mutant 1a Q30R. To be noted: Hepatitis C virus, Huh-7, read-out: 1a Q30R. As for the experimental part:
Evaluation of cell-based anti-HCV activity: Antiviral potency (EC50) was determined using a Renilla luciferase (RLuc)-based HCV replicon reporter assay. To perform the assay for genotype 1 and 2a JFH-1, HCV 1b RLuc cells (harboring a dicistronic genotype 1b Con1 replicon that encodes a RLuc reporter), or HCV 1a RLuc cells (harboring a dicistronic genotype 1a H77 replicon that encodes a RLuc reporter), or HCV 2a JFH-1 Rluc cells (harboring a dicistronic genotype 2a JFH-1 replicon that encodes a RLuc reporter) were dispensed into 384-well plates. To perform the assay for genotype 2a (with M31 present) or 2b, HCV 2a Rluc or 2b Rluc cells (both with M31 present) harboring a dicistronic NS5A chimeric genotype 2a JFH-1 replicon that encodes a RLuc reporter and either genotype 2a J6 strain NS5A gene or genotype 2b MD2b-1 NS5A gene (based on Los Alamos HCV database isolates, both with M31 present) respectively, were dispensed into 384-well plates. To perform the assay for genotype 3 and 4, HCV 3a RLuc or 4a Rluc cells harboring a dicistronic NS5A chimeric genotype 1b Con1 replicon that encodes a RLuc reporter and either a consensus genotype 3a NS5A gene or genotype 4a NS5A gene (based on Los Alamos HCV database isolates) respectively, were dispensed into 384-well plates. Compounds were re-suspended in DMSO at a concentration of 10 mM and serially diluted in DMSO either manually or using an automated pipeting instrument. Serially diluted compounds were mixed with cell culture media and added to the seeded cells. […] 72 hours later, cells were lysed and Renilla luciferase activity quantified as recommended by the manufacturer (Promega-Madison, Wis.). Non-linear regression was performed to calculate EC50 values.
To determine the antiviral potency (EC50) against resistance mutants, resistance mutations, including M28T, Q30R, Q30H, L31M, and Y93C in genotype 1a NS5A and Y93H in genotype 1b NS5A, were introduced individually into either 1a Rluc or 1b Rluc replicons described above by site directed mutagenesis. Replicon RNA of each resistant mutant was transfected into Huh-7 cured-51 cells and antiviral potency was determined on these transfected cells as described above.

SMILES strings stand for the structures.

Consider 14 compounds from patent US10344019B2 (priority 2010, dated 2019).

Turning to `COC(=O)N[C@H](C(=O)N1[C@@H](C)CC[C@H]1c1ncc(-c2cc3c4c(c2)OCc2cc(-c5cnc([C@@H]6C[C@H](C)CN6C(=O)[C@H](NC(=O)OC)c6ccccc6)[nH]5)cc(c2-4)OC3)[nH]1)C(C)C` [Example 586], the EC50 is 0.011 nM in assay [1]; 0.001 to 0.999 nM in assay [2]; 0.001 to 0.999 nM in assay [3]; 0.001 to 0.99 nM in assay [4]; 0.001 to 0.999 nM in assay [5]; 0.001 to 0.999 nM in assay [6]. Also, the EC50 in assay [7] was 0.001 to 0.999 nM.

Turning to `CC#Cc1cc2nc([C@@H]3CCCN3C(=O)[C@@H](NC(=O)OC)C(C)C)[nH]c2c2ccc(-c3ccc4c(ccc5nc([C@@H]6C[C@H](COC)CN6C(=O)[C@H](N)c6ccccc6)[nH]c54)c3)cc12` [Example 593], the EC50 was 0.014 nM in assay [1]; 0.001 to 0.999 nM in assay [2]; 0.001 to 0.999 nM in assay [3]; 0.001 to 0.99 nM in assay [4]; 1 to 44 nM in assay [5]; 0.001 to 0.999 nM in assay [6]. Moreover, the EC50 in assay [7] lay within 1 to 44 nM.

As for `COC[C@H]1C[C@@H](c2nc3ccc4cc5c(cc4c3[nH]2)OCc2cc(-c3cnc([C@@H]4CC[C@H](C)N4C(=O)[C@@H](NC(=O)OC)C(C)C)[nH]3)ccc2-5)N(C(=O)[C@H](NC(=O)OC)c2ccccc2)C1` [Example 594], the EC50 is 0.013 nM in assay [1]; 0.001 to 0.999 nM in assay [2]; 0.001 to 0.999 nM in assay [3]; 0.001 to 0.99 nM in assay [4]; 0.001 to 0.999 nM in assay [5]; 0.001 to 0.999 nM in assay [6]. Besides, the EC50 in assay [7] lay within 0.001 to 0.999 nM.

`CC[C@H](C)[C@H](NC(=O)OC)C(=O)N1C[C@@H](COC)C[C@H]1c1nc2ccc3cc4c(cc3c2[nH]1)OCc1cc(-c2cnc([C@@H]3CC[C@H](C)N3C(=O)[C@@H](NC(=O)OC)[C@@H](C)CC)[nH]2)ccc1-4` [Example 597]: the EC50 in assay [1] is 0.005 nM; in assay [2], 0.001 to 0.999 nM; in assay [3], 0.001 to 0.999 nM; in assay [4] it was 0.001 to 0.99 nM; in assay [5] it was 0.001 to 0.999 nM; in assay [6], 0.001 to 0.999 nM. The EC50 in assay [7] was 0.001 to 0.999 nM.

As to `COC[C@H]1C[C@@H](c2ncc(-c3ccc4c(c3)COc3cc5c(ccc6nc([C@@H]7C[C@H]8CC8N7C(=O)[C@H](NC(=O)OC)c7ccccc7)[nH]c65)cc3-4)[nH]2)N(C(=O)[C@@H](NC(=O)OC)C(C)C)C1` (stereo partly shown) [Example 601], the EC50 in assay [1] is 0.014 nM; in assay [2], 0.001 to 0.999 nM; in assay [3], 0.001 to 0.999 nM; in assay [4] it was 0.001 to 0.99 nM; in assay [5], 0.001 to 0.999 nM; in assay [6] it was 0.001 to 0.999 nM. The EC50 in assay [7] is 0.001 to 0.999 nM.

For the compound `COC(=O)N[C@H](C(=O)N1[C@@H](C)CC[C@H]1c1ncc(-c2ccc3c(c2)COc2cc4c(ccc5nc([C@@H]6CCCN6C(=O)[C@H](NC(=O)OC)c6ccccc6)[nH]c54)cc2-3)[nH]1)C(C)C` [Example 605], the EC50 in assay [1] is 0.015 nM; in assay [2], 0.001 to 0.999 nM; in assay [3], 0.001 to 0.999 nM; in assay [4], 0.001 to 0.99 nM; in assay [5], 0.001 to 0.999 nM; in assay [6] it was 0.001 to 0.999 nM. The EC50 in assay [7] lay within 0.001 to 0.999 nM.

Take `COC[C@H]1C[C@@H](c2ncc(-c3ccc4c(c3)COc3cc5c(cc3-4)CCc3nc([C@@H]4CCCN4C(=O)[C@@H](NC(=O)OC)C(C)C)[nH]c3-5)[nH]2)N(C(=O)[C@H](NC(=O)OC)c2ccccc2)C1` [Example 606]: the EC50 is 0.034 nM in assay [1]; 0.001 to 0.999 nM in assay [2]; 0.001 to 0.999 nM in assay [3]; 0.001 to 0.99 nM in assay [4]; 0.001 to 0.999 nM in assay [5]; 0.001 to 0.999 nM in assay [6]. Moreover, the EC50 in assay [7] is 0.001 to 0.999 nM.

With `COC(=O)N[C@H](C(=O)N1[C@@H](C)CC[C@H]1c1nc2ccc3cc4c(cc3c2[nH]1)OCc1cc(-c2cnc([C@@H]3C[C@H](C)CN3C(=O)[C@H](NC(=O)OC)c3ccccc3)[nH]2)ccc1-4)C(C)C` [Example 609], the EC50 in assay [1] was 0.005 nM; in assay [2] it was 0.001 to 0.999 nM; in assay [3], 0.001 to 0.999 nM; in assay [4] it was 0.001 to 0.99 nM; in assay [5], 0.001 to 0.999 nM; in assay [6], 0.001 to 0.999 nM. Besides, the EC50 in assay [7] fell in the range of 0.001 to 0.999 nM.

Turning to `COC[C@H]1C[C@@H](c2ncc(-c3ccc4c(c3)COc3cc5c(ccc6nc([C@@H]7CC[C@H](C)N7C(=O)[C@@H](NC(=O)OC)C(C)C)[nH]c65)cc3-4)[nH]2)N(C(=O)[C@@H](NC(=O)OC)[C@@H](C)OC)C1` [Example 610], the EC50 in assay [1] is 0.013 nM; in assay [2], 0.001 to 0.999 nM; in assay [3], 0.001 to 0.999 nM; in assay [4], 0.001 to 0.99 nM; in assay [5] it was 0.001 to 0.999 nM; in assay [6], 0.001 to 0.999 nM. Moreover, in assay [7], the EC50 is 0.001 to 0.999 nM.

As to `COC[C@H]1C[C@@H](c2ncc(-c3cc4c5c(c3)OCc3cc(-c6cnc([C@@H]7C[C@H](C)CN7C(=O)[C@H](NC(=O)OC)c7ccccc7)[nH]6)cc(c3-5)OC4)[nH]2)N(C(=O)[C@@H](NC(=O)OC)C(C)C)C1` [Example 611], the EC50 in assay [1] was 0.013 nM; in assay [2] it was 0.001 to 0.999 nM; in assay [3], 0.001 to 0.999 nM; in assay [4] it was 0.001 to 0.99 nM; in assay [5], 0.001 to 0.999 nM; in assay [6] it was 0.001 to 0.999 nM. Also, the EC50 in assay [7] was in the range of 0.001 to 0.999 nM.

Turning to `COC[C@H]1C[C@@H](c2nc3ccc4cc5c(cc4c3[nH]2)OCc2cc(-c3cnc([C@@H]4CC[C@H](C)N4C(=O)[C@@H](NC(=O)OC)C(C)C)[nH]3)ccc2-5)N(C(=O)[C@@H](NC(=O)OC)[C@@H](C)OC)C1` [Example 615], the EC50 was 0.019 nM in assay [1]; 0.001 to 0.999 nM in assay [2]; 0.001 to 0.999 nM in assay [3]; 0.001 to 0.99 nM in assay [4]; 0.001 to 0.999 nM in assay [5]; 0.001 to 0.999 nM in assay [6]. Also, in assay [7], the EC50 was in the range of 0.001 to 0.999 nM.

As to `COC(=O)N[C@H](C(=O)N1[C@@H](C)CC[C@H]1c1ncc(-c2cc3c4c(c2)OCc2cc(-c5cnc([C@@H]6CC[C@H](C)N6C(=O)[C@@H](NC(=O)OC)[C@@H](C)OC)[nH]5)cc(c2-4)OC3)[nH]1)[C@@H](C)OC` [Example 616], the EC50 in assay [1] was 0.018 nM; in assay [2], 0.001 to 0.999 nM; in assay [3], 0.001 to 0.999 nM; in assay [4], 0.001 to 0.99 nM; in assay [5] it was 0.001 to 0.999 nM; in assay [6], 0.001 to 0.999 nM. The EC50 in assay [7] was 0.001 to 0.999 nM.

`COC(=O)N[C@H](C(=O)N1[C@@H](C)CC[C@H]1c1ncc(-c2ccc3c(c2)COc2cc4c(ccc5nc([C@@H]6C[C@H](C)CN6C(=O)[C@H](NC(=O)OC)c6ccccc6)[nH]c54)cc2-3)[nH]1)C(C)C` [Example 617]: the EC50 is 0.005 nM in assay [1]; 0.001 to 0.999 nM in assay [2]; 0.001 to 0.999 nM in assay [3]; 0.001 to 0.99 nM in assay [4]; 0.001 to 0.999 nM in assay [5]; 0.001 to 0.999 nM in assay [6]. For the same compound, the EC50 in assay [7] fell in the range of 0.001 to 0.999 nM.

In the case of `CC[C@H](C)[C@H](NC(=O)OC)C(=O)N1[C@@H](C)CC[C@H]1c1ncc(-c2ccc3c(c2)COc2cc4c(ccc5nc([C@@H]6C[C@H](COC)CN6C(=O)[C@H](NC(=O)OC)c6ccccc6)[nH]c54)cc2-3)[nH]1` [Example 637], the EC50 in assay [2] lay in the range of 0.001 to 0.999 nM; in assay [3] it was 0.001 to 0.999 nM; in assay [4], 0.001 to 0.99 nM; in assay [5], 0.001 to 0.999 nM; in assay [6], 0.001 to 0.999 nM; in assay [7] it was 0.001 to 0.999 nM.
